Data taken from ChEMBL document CHEMBL1138052, “Discovery and optimization of anthranilic acid sulfonamides as inhibitors of methionine aminopeptidase-2: a structural basis for the reduction of albumin binding” (J Med Chem, 2006).

Experiment: Protein binding in rat plasma
Format: ADME, organism-based
Conditions: read-out: PPB (converted)

Row | SMILES | fraction unbound
1 | O=C(O)c1c(NS(=O)(=O)c2ccccc2)ccc2c1CCCC2 | 0.002
2 | Cc1ccc(NS(=O)(=O)c2ccccc2)c(C(=O)O)c1 | 0.003
